Patent US8679859B2, “Method for functionalizing materials and devices comprising such materials” (State of Oregon by and through the State Board of Higher …, priority 2007, dated 2014)

How the values were obtained:
soybean agglutinin (SBA) = soybean agglutinin (SBA) (Glycine max, UniProt P05046); test: Carbohydrate microarray on PEO-coated glass slides, fluorescence-tagged lectin binding; details: lectin 10 μg/ml, FIG. 32
peanut agglutinin (PNA) = biological target: T1, peanut agglutinin (PNA) (Arachis hypogaea, UniProt P02872); test: as above; details: lectin 10 μg/ml, FIG. 30
T1 construct: purchased Molecular Probes
T1 sequence (P02872 24-273): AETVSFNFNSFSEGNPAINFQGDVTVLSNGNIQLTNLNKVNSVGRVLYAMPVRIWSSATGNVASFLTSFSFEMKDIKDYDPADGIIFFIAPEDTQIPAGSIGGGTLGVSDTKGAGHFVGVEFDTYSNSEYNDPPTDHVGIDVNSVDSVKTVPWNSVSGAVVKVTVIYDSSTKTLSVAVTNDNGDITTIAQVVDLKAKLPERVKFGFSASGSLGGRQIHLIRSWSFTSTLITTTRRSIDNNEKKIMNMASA

Con A = Con A (Canavalia ensiformis, UniProt P02866); details: free carbohydrate with Con A, isothermal microcalorimetry, Mandal et al.; cited from earlier work
jack bean lectin (Con A) = biological target: T2, jack bean lectin (Con A) (Canavalia ensiformis, UniProt P02866); test: Carbohydrate microarray on PEO-coated glass slides, fluorescence-tagged lectin binding; details: lectin 10 μg/ml, FIG. 31
T2 construct: purchased Molecular Probes

Chain of soybean agglutinin (SBA) (P05046 33-285): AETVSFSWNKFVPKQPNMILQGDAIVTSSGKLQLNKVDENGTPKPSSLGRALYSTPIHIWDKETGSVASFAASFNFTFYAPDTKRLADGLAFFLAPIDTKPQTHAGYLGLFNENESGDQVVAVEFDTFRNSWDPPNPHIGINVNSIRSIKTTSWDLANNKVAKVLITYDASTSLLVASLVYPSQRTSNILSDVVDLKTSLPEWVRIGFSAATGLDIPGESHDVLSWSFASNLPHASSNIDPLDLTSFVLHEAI

Row | Compound | PNA binding pattern on microarray (fluorescence) (peanut agglutinin (PNA)) | Con A binding pattern on microarray (fluorescence) (jack bean lectin (Con A)) | further results
1 | [N-]=[N+]=Nc1c(F)c(F)c(C(=O)NCCOCCOCCO[C@@H]2OC(CO)[C@@H](O[C@@H]3OC(CO)[C@H](O)C(O)C3O)C(O)C2O)c(F)c1F (stereo partly drawn) [lactose] | primary ligand |  | SBA binding pattern on microarray (fluorescence) (soybean agglutinin (SBA)): showed binding
2 | cellobiose | lesser amounts of binding |  | 
3 | OC[C@H]1O[C@H](O[C@H]2[C@H](O)[C@@H](CO)OC(O)[C@H]2O)[C@@H](O)[C@@H](O)[C@@H]1O (stereo partly drawn) [α-1,3-mannobiose] |  |  | Ka (Con A): 142000 M⁻¹
4 | [N-]=[N+]=Nc1c(F)c(F)c(C(=O)NCCOCCOCCO[C@@H]2OC(CO)[C@@H](O)C(O)C2O)c(F)c1F (stereo partly drawn) [β-D-glucoside] |  | low binding | 
5 | [N-]=[N+]=Nc1c(F)c(F)c(C(=O)NCCOCCOCCO[C@H]2OC(CO)[C@@H](O)C(O)C2O)c(F)c1F (stereo partly drawn) [α-D-mannoside structures] |  | specificity of Con A for binding | 
